# Test results from US9822130B2, “Triazolo-pyrazinyl derivatives useful as soluble guanylate cyclase activators” (Merck Sharp & Dohme Corp., priority 2014, dated 2017).
# Target: T1, sGC α1/β1 heterodimer stably expressed in CHO-K1 cell line (CHO-K1/sGC) (Homo sapiens, UniProt Q02108+Q02153)
# T1 construct: expressed in transfected cells
# T1 sequence (Q02108 1-690): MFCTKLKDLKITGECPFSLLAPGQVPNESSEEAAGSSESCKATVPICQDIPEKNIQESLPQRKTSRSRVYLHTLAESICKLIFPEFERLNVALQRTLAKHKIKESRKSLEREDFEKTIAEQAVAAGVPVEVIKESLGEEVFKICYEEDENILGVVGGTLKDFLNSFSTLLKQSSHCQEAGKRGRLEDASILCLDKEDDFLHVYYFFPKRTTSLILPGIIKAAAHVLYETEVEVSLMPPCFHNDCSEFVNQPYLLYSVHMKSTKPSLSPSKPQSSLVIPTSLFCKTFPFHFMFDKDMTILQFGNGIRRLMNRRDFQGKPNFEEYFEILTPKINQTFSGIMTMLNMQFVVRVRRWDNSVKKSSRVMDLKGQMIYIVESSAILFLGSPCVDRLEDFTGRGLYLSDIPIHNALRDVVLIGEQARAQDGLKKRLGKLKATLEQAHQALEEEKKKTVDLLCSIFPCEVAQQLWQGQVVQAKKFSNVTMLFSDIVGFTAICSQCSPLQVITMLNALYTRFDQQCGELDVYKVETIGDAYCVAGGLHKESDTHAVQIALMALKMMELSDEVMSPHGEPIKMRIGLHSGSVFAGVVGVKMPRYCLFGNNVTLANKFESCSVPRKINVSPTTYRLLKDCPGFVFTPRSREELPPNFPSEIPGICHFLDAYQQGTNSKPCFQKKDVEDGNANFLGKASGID
# T1 sequence (Q02153 1-619): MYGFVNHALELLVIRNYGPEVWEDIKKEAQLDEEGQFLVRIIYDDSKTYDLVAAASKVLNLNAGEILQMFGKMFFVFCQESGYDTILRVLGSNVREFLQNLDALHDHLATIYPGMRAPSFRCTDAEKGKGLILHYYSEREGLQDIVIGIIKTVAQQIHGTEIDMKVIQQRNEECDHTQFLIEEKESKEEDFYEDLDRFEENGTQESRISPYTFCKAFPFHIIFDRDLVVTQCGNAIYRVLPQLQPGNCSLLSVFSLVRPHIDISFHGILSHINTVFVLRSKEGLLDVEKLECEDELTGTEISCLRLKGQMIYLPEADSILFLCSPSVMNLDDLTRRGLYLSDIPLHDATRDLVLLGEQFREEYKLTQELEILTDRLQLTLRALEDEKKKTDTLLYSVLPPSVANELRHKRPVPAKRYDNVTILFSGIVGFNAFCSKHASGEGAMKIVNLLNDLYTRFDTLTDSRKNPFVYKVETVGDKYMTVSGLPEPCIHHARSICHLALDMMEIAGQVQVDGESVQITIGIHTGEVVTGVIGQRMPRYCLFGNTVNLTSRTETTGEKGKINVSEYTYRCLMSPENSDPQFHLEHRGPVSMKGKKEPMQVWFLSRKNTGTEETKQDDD
# Assay: Cell-based sGC Functional Assay (CASA Assay), cGMP generation
# Details: CHO-K1/sGC cells, 1 hr at 37° C., cGMP by HTRF, 4P fit; presence or absence of 1 μM DETA-NO not given; read-out: IP (nM) (inflection point)
# Outline: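 Readout is HTRF cGMP in lysates, normalised to the maximal response of reference sGC activator Compound A (100%), with a 4P fit giving IP and fold induction. Cells were CHO-K1/sGC (human α1/β1) in EBSS buffer with IBMX, incubated 1 hr at 37° C with compound. Run with and without 1 μM DETA-NO; final DMSO 2.5%.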
row,Compound,EC50
1,"C[C@@]1(c2ccc(F)cc2)C(=O)Nc2nc(-c3cn4ncnc4c(Cc4cccc(O)c4)n3)nc(N)c21 [Example 113B, (S)-4-amino-5-(4-fluorophenyl)-2-(8-(3-hydroxybenzyl)-[1,2,4]triazolo[1,5-a]pyrazin-6-yl)-5-methyl-5H-pyrrolo[2,3-d]pyrimidin-6(7H)-one]",763 nM
2,"Nc1nc(-c2cn3ncnc3c(CCC(F)(F)C(F)(F)F)n2)nc2c1C(c1ccccn1)(C1CC1)C(=O)N2 (stereo not drawn) [Example 114A, 4-amino-5-cyclopropyl-2-(8-(3,3,4,4,4-pentafluorobutyl)-[1,2,4]triazolo[1,5-a]pyrazin-6-yl)-5-(pyridin-2-yl)-5,7-dihydro-6H-pyrrolo[2,3-d]pyrimidin-6-one]",144 nM
3,"Nc1nc(-c2cn3ncnc3c(CCCC(F)(F)F)n2)nc2c1C(c1ccccn1)(C1CC1)C(=O)N2 (stereo not drawn) [Example 115A, 4-amino-5-cyclopropyl-5-(pyridin-2-yl)-2-(8-(4,4,4-trifluorobutyl)-[1,2,4]triazolo[1,5-a]pyrazin-6-yl)-5H-pyrrolo[2,3-d]pyrimidin-6(7H)-one]",233 nM
4,"CCCCc1nc(-c2nc(N)c3c(n2)NC(=O)C3(c2ccccn2)C2CC2)cn2ncnc12 (stereo not drawn) [Example 116A, 4-amino-2-(8-butyl-[1,2,4]triazolo[1,5-a]pyrazin-6-yl)-5-cyclopropyl-5-(pyridin-2-yl)-5H-pyrrolo[2,3-d]pyrimidin-6(7H)-one]",19.7 nM
5,"N#Cc1ccc(C2(C3CC3)C(=O)Nc3nc(-c4cn5ncnc5c(CCCC(F)(F)F)n4)nc(N)c32)nc1 (stereo not drawn) [Example 117A, 6-(4-Amino-5-cyclopropyl-6-oxo-2-(8-(4,4,4-trifluorobutyl)-[1,2,4]triazolo[1,5-a]pyrazin-6-yl)-6,7-dihydro-5H-pyrrolo[2,3-d]pyrimidin-5-yl)nicotinonitrile]",49.2 nM
6,"N#Cc1ccc(C2(C3CC3)C(=O)Nc3nc(-c4cn5ncnc5c(CCC(F)(F)C(F)(F)F)n4)nc(N)c32)nc1 (stereo not drawn) [Example 118A, 6-(4-Amino-5-cyclopropyl-6-oxo-2-(8-(3,3,4,4,4-pentafluorobutyl)-[1,2,4]triazolo[1,5-a]pyrazin-6-yl)-6,7-dihydro-5H-pyrrolo[2,3-d]pyrimidin-5-yl)nicotinonitrile]",84.1 nM
7,"O=C1Nc2nc(-c3cn4ncnc4c(CCC(F)(F)C(F)(F)F)n3)nc(O)c2C1(c1ccc(F)c(F)c1)C1CC1 (stereo not drawn) [Example 123A, 5-cyclopropyl-5-(3,4-difluorophenyl)-4-hydroxy-2-(8-(3,3,4,4,4-pentafluorobutyl)-[1,2,4]triazolo[1,5-a]pyrazin-6-yl)-5H-pyrrolo[2,3-d]pyrimidin-6(7H)-one]",204 nM
8,"O=C1Nc2nc(-c3cn4ncnc4c(CCC(F)(F)C(F)(F)F)n3)nc(O)c2C1(c1cncc(F)c1)C1CC1 (stereo not drawn) [Example 124B, 5-cyclopropyl-5-(5-fluoropyridin-3-yl)-4-hydroxy-2-(8-(3,3,4,4,4-pentafluorobutyl)-[1,2,4]triazolo[1,5-a]pyrazin-6-yl)-5H-pyrrolo[2,3-d]pyrimidin-6(7H)-one]",1050 nM
9,"Cc1nc2c(CCC(F)(F)C(F)(F)F)nc(-c3nc(O)c4c(n3)NC(=O)C4(C)c3ccc(Cl)c(F)c3)cn2n1 (stereo not drawn) [Example 132B, 5-(4-chloro-3-fluorophenyl)-4-hydroxy-5-methyl-2-(2-methyl-8-(3,3,4,4,4-pentafluorobutyl)-[1,2,4]triazolo[1,5-a]pyrazin-6-yl)-5H-pyrrolo[2,3-d]pyrimidin-6(7H)-one]",442 nM

# Now from value to compound:
row,EC50,Compound
1,134 nM,"C[C@@]1(c2ccc(F)cc2)C(=O)Nc2nc(-c3cn4ncnc4c(CCC(F)(F)C(F)(F)F)n3)nc(O)c21 [Example 119A, (S)-5-(4-fluorophenyl)-4-hydroxy-5-methyl-2-(8-(3,3,4,4,4-pentafluorobutyl)-[1,2,4]triazolo[1,5-a]pyrazin-6-yl)-5,7-dihydro-6H-pyrrolo[2,3-d]pyrimidin-6-one]"
2,155 nM,"CC1(c2ccc(Cl)cn2)C(=O)Nc2nc(-c3cn4ncnc4c(CCC(F)(F)C(F)(F)F)n3)nc(O)c21 (stereo not drawn) [Example 120A, 5-(5-chloropyridin-2-yl)-4-hydroxy-5-methyl-2-(8-(3,3,4,4,4-pentafluorobutyl)-[1,2,4]triazolo[1,5-a]pyrazin-6-yl)-5H-pyrrolo[2,3-d]pyrimidin-6(7H)-one]"
3,130 nM,"CC1(c2ccc(Cl)c(F)c2)C(=O)Nc2nc(-c3cn4ncnc4c(CCC(F)(F)C(F)(F)F)n3)nc(O)c21 (stereo not drawn) [Example 121B, 5-(4-chloro-3-fluorophenyl)-4-hydroxy-5-methyl-2-(8-(3,3,4,4,4-pentafluorobutyl)-[1,2,4]triazolo[1,5-a]pyrazin-6-yl)-5H-pyrrolo[2,3-d]pyrimidin-6(7H)-one]"
4,141 nM,"CC1(c2ccc(F)cn2)C(=O)Nc2nc(-c3cn4ncnc4c(CCC(F)(F)C(F)(F)F)n3)nc(O)c21 (stereo not drawn) [Example 122B, 5-(5-fluoropyridin-2-yl)-4-hydroxy-5-methyl-2-(8-(3,3,4,4,4-pentafluorobutyl)-[1,2,4]triazolo[1,5-a]pyrazin-6-yl)-5H-pyrrolo[2,3-d]pyrimidin-6(7H)-one]"
5,575 nM,"CC1(c2cncc(F)c2)C(=O)Nc2nc(-c3cn4ncnc4c(CCC(F)(F)C(F)(F)F)n3)nc(O)c21 (stereo not drawn) [Example 125A, 5-(5-fluoropyridin-3-yl)-4-hydroxy-5-methyl-2-(8-(3,3,4,4,4-pentafluorobutyl)-[1,2,4]triazolo[1,5-a]pyrazin-6-yl)-5H-pyrrolo[2,3-d]pyrimidin-6(7H)-one]"
6,132 nM,"CC1(c2ccc(Cl)cc2)C(=O)Nc2nc(-c3cn4ncnc4c(CCC(F)(F)C(F)(F)F)n3)nc(O)c21 (stereo not drawn) [Example 126A, 5-(4-chlorophenyl)-4-hydroxy-5-methyl-2-(8-(3,3,4,4,4-pentafluorobutyl)-[1,2,4]triazolo[1,5-a]pyrazin-6-yl)-5H-pyrrolo[2,3-d]pyrimidin-6(7H)-one]"
7,1260 nM,"CC1(c2ccccn2)C(=O)Nc2nc(-c3cn4ncnc4c(CCC(F)(F)C(F)(F)F)n3)nc(O)c21 (stereo not drawn) [Example 127B, 4-hydroxy-5-methyl-2-(8-(3,3,4,4,4-pentafluorobutyl)-[1,2,4]triazolo[1,5-a]pyrazin-6-yl)-5-(pyridin-2-yl)-5H-pyrrolo[2,3-d]pyrimidin-6(7H)-one]"
8,128 nM,"CC1(c2ccccc2)C(=O)Nc2nc(-c3cn4ncnc4c(CCC(F)(F)C(F)(F)F)n3)nc(O)c21 (stereo not drawn) [Example 128B, 4-hydroxy-5-methyl-2-(8-(3,3,4,4,4-pentafluorobutyl)-[1,2,4]triazolo[1,5-a]pyrazin-6-yl)-5-phenyl-5H-pyrrolo[2,3-d]pyrimidin-6(7H)-one]"
9,51.7 nM,"CC1(c2cccc(F)c2)C(=O)Nc2nc(-c3cn4ncnc4c(CCC(F)(F)C(F)(F)F)n3)nc(O)c21 (stereo not drawn) [Example 129B, 5-(3-fluorophenyl)-4-hydroxy-5-methyl-2-(8-(3,3,4,4,4-pentafluorobutyl)-[1,2,4]triazolo[1,5-a]pyrazin-6-yl)-5,7-dihydro-6H-pyrrolo[2,3-d]pyrimidin-6-one]"
10,503 nM,"Cc1ccc(C2(C)C(=O)Nc3nc(-c4cn5ncnc5c(CCC(F)(F)C(F)(F)F)n4)nc(O)c32)nc1 (stereo not drawn) [Example 130B, 4-hydroxy-5-methyl-5-(5-methylpyridin-2-yl)-2-(8-(3,3,3,4,4,4-pentafluorobutyl)-[1,2,4]triazolo[1,5-a]pyrazin-6-yl)-5H-pyrrolo[2,3-d]pyrimidin-6(7H)-one]"
11,1470 nM,"CC1(c2ccc(C#N)cn2)C(=O)Nc2nc(-c3cn4ncnc4c(CCC(F)(F)C(F)(F)F)n3)nc(O)c21 (stereo not drawn) [Example 131A, 6-(4-hydroxy-5-methyl-6-oxo-2-(8-(3,3,4,4,4-pentafluorobutyl)-[1,2,4]triazolo[1,5-a]pyrazin-6-yl)-6,7-dihydro-5H-pyrrolo[2,3-d]pyrimidin-5-yl)nicotinonitrile]"

# Same assay, conditions: CHO-K1/sGC cells, 1 hr at 37° C., cGMP by HTRF; presence or absence of 1 μM DETA-NO not given; read-out: % Act. (percent activation relative to maximum cGMP production of Compound A = 100%)
row,Emax,Compound
1,100%,"CC1(c2ccc(F)cn2)C(=O)Nc2nc(-c3cn4ncnc4c(CCC(F)(F)C(F)(F)F)n3)nc(O)c21 (stereo not drawn) [Example 122B, 5-(5-fluoropyridin-2-yl)-4-hydroxy-5-methyl-2-(8-(3,3,4,4,4-pentafluorobutyl)-[1,2,4]triazolo[1,5-a]pyrazin-6-yl)-5H-pyrrolo[2,3-d]pyrimidin-6(7H)-one]"
